Assay: xn = mol fraction of the nth substance listed
Settings: Capillary rise

CC [ethane] + C
Settings | surface tension liquid-gas [mN/m]
93.15 K, x2 = 0 | 32.9
133.15 K, x2 = 0 | 25.32
133.15 K, x2 = 0.194 | 20.74
133.15 K, x2 = 0.414 | 16.34
133.15 K, x2 = 0.527 | 14.45
133.15 K, x2 = 0.821 | 10.78
173.15 K, x2 = 0 | 18.26
173.15 K, x2 = 0.133 | 15.59
173.15 K, x2 = 0.139 | 15.37
173.15 K, x2 = 0.256 | 12.87
173.15 K, x2 = 0.421 | 9.8
173.15 K, x2 = 0.429 | 9.6
173.15 K, x2 = 0.459 | 9.07
173.15 K, x2 = 0.565 | 7.67
173.15 K, x2 = 0.587 | 7.14
173.15 K, x2 = 0.684 | 5.98
173.15 K, x2 = 0.691 | 5.79
173.15 K, x2 = 0.793 | 4.51
173.15 K, x2 = 0.818 | 4.29
173.15 K, x2 = 0.821 | 4.25
193.15 K, x2 = 0 | 15.01
193.15 K, x2 = 0.134 | 12.26
193.15 K, x2 = 0.16 | 11.62
193.15 K, x2 = 0.284 | 9.34
193.15 K, x2 = 0.287 | 9.07
193.15 K, x2 = 0.395 | 7.34
193.15 K, x2 = 0.501 | 5.47
193.15 K, x2 = 0.672 | 3.49
193.15 K, x2 = 0.685 | 3.23
213.15 K, x2 = 0 | 11.79
213.15 K, x2 = 0.024 | 11.22
213.15 K, x2 = 0.116 | 9.57
213.15 K, x2 = 0.17 | 8.6
213.15 K, x2 = 0.238 | 7.28
213.15 K, x2 = 0.447 | 4.11
213.15 K, x2 = 0.539 | 2.71
233.15 K, x2 = 0 | 8.77
233.15 K, x2 = 0.075 | 7.19
233.15 K, x2 = 0.143 | 6.06
233.15 K, x2 = 0.153 | 5.89
233.15 K, x2 = 0.214 | 4.93
233.15 K, x2 = 0.228 | 4.7
233.15 K, x2 = 0.292 | 3.63
233.15 K, x2 = 0.297 | 3.55
233.15 K, x2 = 0.362 | 2.74
233.15 K, x2 = 0.369 | 2.58
253.15 K, x2 = 0 | 5.77
253.15 K, x2 = 0.048 | 5.17
253.15 K, x2 = 0.099 | 4.4
253.15 K, x2 = 0.145 | 3.73
253.15 K, x2 = 0.196 | 2.98
253.15 K, x2 = 0.241 | 2.34
253.15 K, x2 = 0.242 | 2.28
263.15 K, x2 = 0 | 4.48
263.15 K, x2 = 0.048 | 3.82
263.15 K, x2 = 0.098 | 3.15
263.15 K, x2 = 0.142 | 2.58
263.15 K, x2 = 0.185 | 2.03
273.15 K, x2 = 0 | 3.2
273.15 K, x2 = 0.035 | 2.76
273.15 K, x2 = 0.083 | 2.19
273.15 K, x2 = 0.124 | 1.75
283.15 K, x2 = 0 | 1.96
283.15 K, x2 = 0.017 | 1.82
283.15 K, x2 = 0.045 | 1.5
283.15 K, x2 = 0.065 | 1.33
283.15 K, x2 = 0.067 | 1.29

C [methane] + CC
x1 = 1
Settings | surface tension liquid-gas [mN/m]
93.15 K | 16.69
133.15 K | 8.78
173.15 K | 2

Reference: the NIST ThermoML archive (doi:10.1016/j.fluid.2013.07.008)
